US7695728B2, “2-substituted pyridines, processes for their preparation and their use for controlling harmful fungi” (BASF Aktiengesellschaft, priority 2004, dated 2010)

| Compound | melting point [°C] |
| --- | --- |
| Fc1cccc(Cl)c1-c1c(NC2CC2)cc(-n2cccn2)nc1Cl [I-22] | 164 |
| Fc1cccc(Cl)c1-c1c(Cl)cc(-n2cccn2)nc1NC1CCCCC1 [I-43] | 152 |
| CCC(C)Nc1cc(-n2cccn2)nc(Cl)c1-c1c(F)cccc1Cl (stereo not shown) [I-15] | 108 |
| CC(C)Nc1nc(-n2cncn2)cc(Cl)c1-c1c(F)cccc1Cl [I-14, 4-chloro-3-(2-chloro-6-fluorophenyl)-2-(2-propylamino)-6-([1,2,4]triazol-1-yl)pyridine] | 152 |
| Fc1cccc(Cl)c1-c1c(Cl)cc(-n2cccn2)nc1NC1CC1 [I-23] | 103 |
| CC(C)(C)C1CCC(Nc2cc(-c3ccccn3)nc(Cl)c2-c2c(F)cccc2Cl)CC1 (stereo not shown) [I-27] | 163 |
| Fc1cccc(Cl)c1-c1c(N2CCCC2)cc(-n2cccn2)nc1Cl [I-21] | 161 |
| CC(C)(C)C1CCC(Nc2nc(-n3cccn3)cc(Cl)c2-c2c(F)cccc2Cl)CC1 (stereo not shown) [I-9] | 126 |
| Fc1cccc(Cl)c1-c1c(Cl)cc(-c2ccccn2)nc1N1CCCC1 [I-40] | 155 |
| CC1CCN(c2nc(-n3cccn3)cc(Cl)c2-c2c(F)cccc2Cl)CC1 [I-19] | 120 |
| CCC(C)Nc1nc(-n2cccn2)cc(Cl)c1-c1c(F)cccc1Cl (stereo not shown) [I-16] | 114 |
| Fc1cccc(Cl)c1-c1c(NC2CCCCC2)cc(-n2cccn2)nc1Cl [I-44] | 112 |
| Fc1cccc(Cl)c1-c1c(NC2CCC(c3ccccc3)CC2)cc(-c2ccccn2)nc1Cl (stereo not shown) [I-25] | 181 |
| Fc1cccc(Cl)c1-c1c(Cl)cc(-c2ccccn2)nc1NC1CCC(c2ccccc2)CC1 (stereo not shown) [I-24] | 162 |
| CC(C)Nc1cc(-n2cncn2)nc(Cl)c1-c1c(F)cccc1Cl [I-13, 2-Chloro-3-(2-chloro-6-fluorophenyl)-4-(2-propylamino)-6-([1,2,4]triazol-1-yl)pyridine] | 152 |
| CC1CCN(c2cc(-c3ccccn3)nc(Cl)c2-c2c(F)cccc2Cl)CC1 [I-31] | 119 |
| Fc1cccc(Cl)c1-c1c(NC2CCC(c3ccccc3)CC2)cc(-n2cccn2)nc1Cl (stereo not shown) [I-4] | 170 |
| CC(C)Nc1nc(-c2ccccn2)cc(Cl)c1-c1c(F)cccc1Cl [I-39] | 67 |
| Fc1cccc(Cl)c1-c1c(NC2CCCCC2)cc(-c2ccccn2)nc1Cl [I-36] | 83 |
| Fc1cccc(Cl)c1-c1c(Cl)cc(-n2cccn2)nc1NC1CCC(c2ccccc2)CC1 (stereo not shown) [I-5] | 78 |
| Fc1cccc(Cl)c1-c1c(Cl)cc(-n2cccn2)nc1N1CCCC1 [I-20] | 158 |

The remaining lines, values ahead:

| melting point [°C] | Compound |
| --- | --- |
| 78 | COc1ccc(CCNc2cc(-c3ccccn3)nc(Cl)c2-c2c(F)cccc2Cl)cc1OC [I-56] |
| 183 | Cc1nc(-c2cc(NC(C)C)c(-c3c(F)cccc3Cl)c(Cl)n2)sc1C [I-50] |
| 129 | CC1CCN(c2cc(-c3ncccn3)nc(Cl)c2-c2c(F)cccc2Cl)CC1 [I-54] |
| 78 | CC(C)Nc1cc(-c2nccs2)nc(Cl)c1-c1c(F)cccc1Cl [I-48] |
| 119 | CC(C)Nc1nc(-c2nc3ccccc3s2)cc(Cl)c1-c1c(F)cccc1Cl [I-51] |
| 131 | Cc1cccc(-c2cc(Cl)c(-c3c(F)cccc3Cl)c(NC(C)C)n2)n1 [I-45] |
| 201 | COc1ccc(CCNc2cc(-n3cccn3)nc(Cl)c2-c2c(F)cccc2Cl)cc1OC [I-58] |
| 59 | COc1ccc(CCNc2nc(-n3cccn3)cc(Cl)c2-c2c(F)cccc2Cl)cc1OC [I-57] |
| 154 | CC(C)Nc1cc(-c2nc3ccccc3s2)nc(Cl)c1-c1c(F)cccc1Cl [I-52] |
| 129 | CC1CCN(c2nc(-c3ncccn3)cc(Cl)c2-c2c(F)cccc2Cl)CC1 [I-53] |
